What was measured:
Test in all cases: Ceftazidime MIC with fixed concentration of BLI
Type in all cases: cell-based
[1] = test system: KX1000 Klebsiella oxytoca OXA-2; settings: derivative at 10 μg/mL; KX1000 OXA-2
Procedure: (§1) Next, ceftazidime potentiation activity of several cyclic boronic acid ester derivatives was tested using a larger panel of strains expressing β-lactamase hydrolyzing enzymes. Ceftazidime MICs were determined alone and in the presence of fixed concentrations of various cyclic boronic acid ester derivatives.

[2] = test system: ec310 Escherichia coli ACT-1; settings: derivative at 10 μg/mL; ec310 ACT-1
Procedure: as §1

[3] = test system: KP1008 Klebsiella pneumoniae KPC-2; settings: derivative at 10 μg/mL; KP1008 KPC-2
Procedure: as §1

[4] = test system: KP1009 Klebsiella pneumoniae CTX-M-15; settings: derivative at 10 μg/mL; KP1009 CTX-M-15
Procedure: as §1

[5] = test system: EC1006 Escherichia coli FOX-5; settings: derivative at 10 μg/mL; EC1006 FOX-5
Procedure: as §1

[6] = test system: EC1004 Escherichia coli CMY-2; settings: derivative at 10 μg/mL; EC1004 CMY-2
Procedure: as §1

[7] = test system: ECL1002 Enterobacter cloacae Hyper AmpC expression; settings: derivative at 10 μg/mL
Procedure: as §1

[8] = test system: EC1008 Escherichia coli CTX-M3; settings: derivative at 10 μg/mL
Procedure: as §1

[9] = test system: AB1057 Acinetobacter baumannii OXA-58; settings: derivative at 10 μg/mL; AB1057 OXA-58
Procedure: as §1

[10] = test system: KP1004 Klebsiella pneumoniae KPC-2; settings: derivative at 10 μg/mL; KP1004 KPC-2
Procedure: as §1

[11] = test system: KP1005 Klebsiella pneumoniae CTX-M-14; settings: derivative at 10 μg/mL; KP1005 CTX-M-14
Procedure: as §1

[12] = test system: ec303 Escherichia coli TEM-12; settings: derivative at 10 μg/mL; ec303 TEM-12
Procedure: as §1

[13] = test system: EC1010 Escherichia coli CMY-6; settings: derivative at 10 μg/mL; EC1010 CMY-6
Procedure: as §1

[14] = test system: ec307 Escherichia coli SHV-4; settings: derivative at 10 μg/mL; ec307 SHV-4
Procedure: as §1

[15] = test system: AB1054 Acinetobacter baumannii OXA-23; settings: derivative at 10 μg/mL; AB1054 OXA-23
Procedure: as §1

[16] = test system: EC1011 Escherichia coli TEM-26; settings: derivative at 10 μg/mL; EC1011 TEM-26
Procedure: as §1

[17] = test system: ec306 Escherichia coli SHV-2; settings: derivative at 10 μg/mL; ec306 SHV-2
Procedure: as §1

[18] = test system: ec309 Escherichia coli MIR-1; settings: derivative at 10 μg/mL; ec309 MIR-1
Procedure: as §1

[19] = test system: EC1014 Escherichia coli DHA-1; settings: derivative at 10 μg/mL; EC1014 DHA-1
Procedure: as §1

[20] = test system: KP1010 Klebsiella pneumoniae SHV-12; settings: derivative at 10 μg/mL; KP1010 SHV-12
Procedure: as §1

[21] = test system: ec302 Escherichia coli TEM-10; settings: derivative at 10 μg/mL; ec302 TEM-10
Procedure: as §1

[22] = test system: EC1009 Escherichia coli TEM-10; settings: derivative at 10 μg/mL; EC1009 TEM-10
Procedure: as §1

[23] = test system: PAM2005 Pseudomonas aeruginosa ampC; settings: derivative at 10 μg/mL
Procedure: as §1

[24] = test system: ec300 Escherichia coli TEM-3; settings: derivative at 10 μg/mL; ec300 TEM-3
Procedure: as §1

[25] = test system: ec301 Escherichia coli TEM-6; settings: derivative at 10 μg/mL; ec301 TEM-6
Procedure: as §1

[26] = test system: PAM2035 Pseudomonas aeruginosa ampC mexA:tet; settings: derivative at 10 μg/mL
Procedure: as §1

[27] = test system: KP1012 Klebsiella pneumoniae SHV-18; settings: derivative at 10 μg/mL; KP1012 SHV-18
Procedure: as §1

[28] = test system: ec308 Escherichia coli SHV-5; settings: derivative at 10 μg/mL; ec308 SHV-5
Procedure: as §1

[29] = test system: KP1007 Klebsiella pneumoniae OXA-10; settings: derivative at 10 μg/mL; KP1007 OXA-10
Procedure: as §1

[30] = test system: pa1063 Pseudomonas aeruginosa GES-1; settings: derivative at 10 μg/mL; pa1063 GES-1
Procedure: as §1

[31] = test system: EC1007 Escherichia coli KPC-3; settings: derivative at 10 μg/mL; EC1007 KPC-3
Procedure: as §1

SMILES	Ceftazidime MIC with cyclic boronic acid ester derivative [1]	Ceftazidime MIC with cyclic boronic acid ester derivative [2]	Ceftazidime MIC with cyclic boronic acid ester derivative [3]	Ceftazidime MIC with cyclic boronic acid ester derivative [4]	Ceftazidime MIC with cyclic boronic acid ester derivative [5]	Ceftazidime MIC with cyclic boronic acid ester derivative [6]	Ceftazidime MIC with cyclic boronic acid ester derivative [7]	Ceftazidime MIC with cyclic boronic acid ester derivative [8]	Ceftazidime MIC with cyclic boronic acid ester derivative [9]	Ceftazidime MIC with cyclic boronic acid ester derivative [10]	Ceftazidime MIC with cyclic boronic acid ester derivative [11]	Ceftazidime MIC with cyclic boronic acid ester derivative [12]	Ceftazidime MIC with cyclic boronic acid ester derivative [13]	Ceftazidime MIC with cyclic boronic acid ester derivative [14]	Ceftazidime MIC with cyclic boronic acid ester derivative [15]	Ceftazidime MIC with cyclic boronic acid ester derivative [16]	Ceftazidime MIC with cyclic boronic acid ester derivative [17]	Ceftazidime MIC with cyclic boronic acid ester derivative [18]	Ceftazidime MIC with cyclic boronic acid ester derivative [19]	Ceftazidime MIC with cyclic boronic acid ester derivative [20]	also measured
O=C(O)C[C@@H]1CC[C@H](NC(=O)Cc2cccs2)B(O)O1 [Compound 5, 2-((3R,6S)-2-hydroxy-3-(2-(thiophen-2-yl)acetamido)-1,2-oxaborinan-6-yl)acetic acid]	Y (MIC of greater than 1 μg/mL to 8 μg/mL)	X (MIC of 1 μg/mL or less)	X (MIC of 1 μg/mL or less)	Z (MIC of greater than 8 μg/mL)	Y (MIC of greater than 1 μg/mL to 8 μg/mL)	Y (MIC of greater than 1 μg/mL to 8 μg/mL)	Y (MIC of greater than 1 μg/mL to 8 μg/mL)	Y (MIC of greater than 1 μg/mL to 8 μg/mL)	Z (MIC of greater than 8 μg/mL)	Y (MIC of greater than 1 μg/mL to 8 μg/mL)	Z (MIC of greater than 8 μg/mL)	Y (MIC of greater than 1 μg/mL to 8 μg/mL)	Y (MIC of greater than 1 μg/mL to 8 μg/mL)	Y (MIC of greater than 1 μg/mL to 8 μg/mL)	Z (MIC of greater than 8 μg/mL)	Z (MIC of greater than 8 μg/mL)	Z (MIC of greater than 8 μg/mL)	X (MIC of 1 μg/mL or less)	X (MIC of 1 μg/mL or less)	Y (MIC of greater than 1 μg/mL to 8 μg/mL)	Ceftazidime MIC with cyclic boronic acid ester derivative [21]: Z (MIC of greater than 8 μg/mL); Ceftazidime MIC with cyclic boronic acid ester derivative [22]: Z (MIC of greater than 8 μg/mL); Ceftazidime MIC with cyclic boronic acid ester derivative [23]: Z (MIC of greater than 8 μg/mL); Ceftazidime MIC with cyclic boronic acid ester derivative [24]: Y (MIC of greater than 1 μg/mL to 8 μg/mL); Ceftazidime MIC with cyclic boronic acid ester derivative [25]: Z (MIC of greater than 8 μg/mL); Ceftazidime MIC with cyclic boronic acid ester derivative [26]: Y (MIC of greater than 1 μg/mL to 8 μg/mL); Ceftazidime MIC with cyclic boronic acid ester derivative [27]: Y (MIC of greater than 1 μg/mL to 8 μg/mL); Ceftazidime MIC with cyclic boronic acid ester derivative [28]: Z (MIC of greater than 8 μg/mL); Ceftazidime MIC with cyclic boronic acid ester derivative [29]: Y (MIC of greater than 1 μg/mL to 8 μg/mL); Ceftazidime MIC with cyclic boronic acid ester derivative [30]: Z (MIC of greater than 8 μg/mL); Ceftazidime MIC with cyclic boronic acid ester derivative [31]: X (MIC of 1 μg/mL or less)
Cl.N[C@H]1CCC(CC(=O)O)OB1O (stereo partly drawn) [Compound 7, 2-((3R)-3-amino-2-hydroxy-1,2-oxaborinan-6-yl)acetic acid hydrochloride]	Y (MIC of greater than 1 μg/mL to 8 μg/mL)	Z (MIC of greater than 8 μg/mL)	Z (MIC of greater than 8 μg/mL)	Z (MIC of greater than 8 μg/mL)	Z (MIC of greater than 8 μg/mL)	Z (MIC of greater than 8 μg/mL)	Z (MIC of greater than 8 μg/mL)	Z (MIC of greater than 8 μg/mL)	Z (MIC of greater than 8 μg/mL)	Z (MIC of greater than 8 μg/mL)	Z (MIC of greater than 8 μg/mL)	Z (MIC of greater than 8 μg/mL)	Z (MIC of greater than 8 μg/mL)	Z (MIC of greater than 8 μg/mL)	Z (MIC of greater than 8 μg/mL)	Z (MIC of greater than 8 μg/mL)	Z (MIC of greater than 8 μg/mL)	Z (MIC of greater than 8 μg/mL)	Z (MIC of greater than 8 μg/mL)	Z (MIC of greater than 8 μg/mL)	Ceftazidime MIC with cyclic boronic acid ester derivative [21]: Z (MIC of greater than 8 μg/mL); Ceftazidime MIC with cyclic boronic acid ester derivative [22]: Z (MIC of greater than 8 μg/mL); Ceftazidime MIC with cyclic boronic acid ester derivative [23]: Z (MIC of greater than 8 μg/mL); Ceftazidime MIC with cyclic boronic acid ester derivative [24]: Z (MIC of greater than 8 μg/mL); Ceftazidime MIC with cyclic boronic acid ester derivative [25]: Z (MIC of greater than 8 μg/mL); Ceftazidime MIC with cyclic boronic acid ester derivative [26]: Z (MIC of greater than 8 μg/mL); Ceftazidime MIC with cyclic boronic acid ester derivative [27]: Z (MIC of greater than 8 μg/mL); Ceftazidime MIC with cyclic boronic acid ester derivative [28]: Z (MIC of greater than 8 μg/mL); Ceftazidime MIC with cyclic boronic acid ester derivative [29]: Z (MIC of greater than 8 μg/mL); Ceftazidime MIC with cyclic boronic acid ester derivative [30]: Z (MIC of greater than 8 μg/mL); Ceftazidime MIC with cyclic boronic acid ester derivative [31]: Z (MIC of greater than 8 μg/mL)
